Source: publication PMC11129349, “Synthesis and Evaluation of a Novel PET Radioligand for Imaging Glutaminyl Cyclase Activity as a Biomarker for Detecting Alzheimer’s Disease” (ACS Sensors, 2024)

Target: T1, glutaminyl cyclase (QC; human recombinant glutaminyl peptide cyclotransferase) (Homo sapiens, UniProt Q16769)
T1 construct: gene QPCT
Assay: PGPEP1-coupled fluorescence assay with H-Gln-AMC substrate, recombinant human QC
Format: biochemical

T1 sequence (Q16769 29-361): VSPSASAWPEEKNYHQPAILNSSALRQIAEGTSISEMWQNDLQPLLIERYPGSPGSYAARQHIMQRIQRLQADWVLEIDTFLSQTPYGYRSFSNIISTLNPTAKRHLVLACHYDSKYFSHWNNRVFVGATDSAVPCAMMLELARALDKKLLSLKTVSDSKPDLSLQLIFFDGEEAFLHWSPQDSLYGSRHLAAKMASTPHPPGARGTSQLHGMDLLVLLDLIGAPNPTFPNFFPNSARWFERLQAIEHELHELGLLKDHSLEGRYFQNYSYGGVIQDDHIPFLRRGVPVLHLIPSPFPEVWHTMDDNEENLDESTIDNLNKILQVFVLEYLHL

- IC50: 56.3 nM
SMILES: O=C1NC[C@H](c2ccc(OCCCF)cc2)N1c1ccc2[nH]cnc2c1 [compound 8, S-[19F]PB0822]
